Experimental data: patent US20230087609A1, “USE OF A SOLUBLE GUANYLATE CYCLASE (sGC) STIMULATOR OR OF A COMBINATION OF A sGC STIMULATOR AND AN sGC ACTIVATOR FOR CONDITIONS WHEREIN THE HEME GROUP OF sGC IS OXIDIZED OR WHEREIN sGC IS DEFICIENT IN HEME” (Universiteit Maastricht, priority 2020, published 2023)

Columns and labels:
[1] = test system: isolated rat mesenteric arteries; experiment: Relaxation of isolated rat mesenteric arteries (myograph)
From the text: The animals were killed humanely via CO2 inhalation (95% CO2, 5% O2) followed by cervical dislocation and exsanguination. The required tissues were dissected and placed in ice-cold oxygenated Krebs' solution (composition in mM: NaCl 119, KCl 4.7, MgSO4 1.17, NaHCO3 25, KH2PO4 1.18, CaCl2 2.5, glucose 5.5, EDTA 0.026, pH 7.4). The collected arteries were carefully freed of fat and connective tissue and cut into 2 mm rings.
The segments were then mounted in a small vessel myograph for the measurement of changes in isometric tension. Two 40 μm stainless steel wires were inserted through the lumen of the segment, one attached to an isometric force transducer and the other to a support driven by a micrometer. The vessels were maintained in Krebs' solution at 37° C. in 7 ml myograph chambers and were continuously bubbled with carbogen (95% O2, 5% CO2). Arteries were allowed to equilibrate for a 30 min period under zero force after which their internal diameter was normalised to an equivalent transmural pressure of 100 mmHg. Changes in isometric tension were reordered using a Myograph Interface Model 610 M version 2.2 (AD Instruments, Pty Ltd) and a chart recorder (Yokogawa, Japan), or using a MacLab® (MacLab® data-acquisition system, AD Instruments Pty Ltd.), interfaced with a Macintosh Computer. Following the 30 min equilibration period at optimal resting tension, the vessels were contracted maximally using a potassium depolarising KPSS solution (composition in mM: KCl 123, MgSO4 1.17, KH2PO4 2.37, CaCl2 2.5, glucose, 5.5 and EDTA 0.026). After the maximum contraction reached a plateau, the vessels were washed thoroughly using Krebs' solution and the tension allowed to return to the baseline. The vessels were then pre-contracted to ≈50% maximum contraction using titrated concentration of the thromboxane A2 mimetic U46619 (0.1-100 nM) and a titrated concentration of the al agonist cirazoline (1-100 nM). Subsequently, cumulative (0.5 log unit) concentration response curve to BAY 58-2667 (1 pM-0.1 μM) were constructed in the presence and absence of 100nM BAY 41-2272 (100 nM). All treatments used in our study including the pre-incubation with 10 μM ODQ for 30 min were added before the 50% pre-contraction with cirazoline and U46619 and only one concentration response curve to any vasodilator was constructed in each segment of the blood vessel. At the completion of each concentration response curve, maximal relaxation was achieved by adding nifedipine 10 μM.
Results are expressed as mean±s.e.m, with n representing the number of samples used from separate subjects. Statistical significance was accepted at the P<0.05 level. Relaxation responses to BAY58-2667 were expressed as a percentage reversal of the level of pre-contraction to U46619, with the response to nifedipine 10 μM defined as 100% relaxation. The individual response curves obtained for each vasodilator were fitted using non-linear regressions (Graphpad Prism®, version 5). In-vitro experiments have been performed with n=3 and n=1. Maximal relaxation values (%) at specific concentrations of the compounds were compared. For multiple comparisons, student's t-test or one-way analysis of variance (ANOVA) was followed by Bonferroni's test. • The results of our experiments are represented by the following non-limiting examples.

[2] = test system: Human Brain Microvascular Endothelial Cells (HBMECs); experiment: Cell viability (MTT) of HBMEC subjected to hypoxia; type: cell-based; settings: 1 μM; 6 h hypoxia, 24 h reperfusion; versus non-treated cells (FIG. 9)
Method: HBMEC (Cell systems, USA) between passage 3 and 9 were cultured to approximately 95% confluence using specialized cell medium (EGM-2 MV BulletKit, Lonza, The Netherlands) enriched with 5% fetal bovine serum before starting the hypoxia period. For hypoxia studies, HBMECs were seeded at specific density (6×10^4 cells/ml) in 12 wells-plate and incubated during 24 h at 37° C. Then, cell medium was replaced with non-FBS containing medium following by 6 h of hypoxia (94.8% N2, 0.2% O2 and 5% CO2) at 37° C. using hypoxia workstations (Ruskin Invivo2 400 station, The Netherlands). The hypoxia period was followed by 24 h of reperfusion in the presence or absence of 1 μM BAY 41-2272. Control cells were exposed to normoxia (75% N2, 20% O2 and 5% CO2) and enriched medium during the hypoxia period.
After 24 h of re-oxygenation period, cell viability was assessed using the colorimetric MTT assay. MTT solution (5 mg/ml) was added to each well (100 μl/ml) and incubated for 2 h at 37° C. The formazan salt formed was solubilized by adding 350 μl/well DMSO. The optical density was measured spectrophotometrically at 540 nm using a micro plate reader. Absorbance values obtained in control cells were set to 100% viability.

## Nc1nc(-c2nn(Cc3ccccc3F)c3ncccc23)ncc1C1CC1 [BAY 41-2272, 5-cyclopropyl-2-[1-(2-fluoro-benzyl)-1H-pyrazolo[3,4-b]pyridin-3-yl]-pyrimidin-4-ylamine]
[1]; 0.1 μM BAY 41-2272 alone, pre-contraction with U46619
  relaxation, compound alone: no relaxation
[1]; nano-molar range
  effect on Bay 58-2667 relaxation: augmented
  effect on DEA/NO (NO donor) relaxation: augmented
[2]
  cell viability: significantly increased cell viability
